Data reported in patent publication US11339130B1 (Blade Therapeutics, Inc., priority 2016, dated 2022).

Legend:
[1] = molecular target: T1, Human Calpain 1/NS1 (Homo sapiens, UniProt P07384); assay: Calpain inhibition continuous fluorescence (FRET) assay, Human Calpain 1/NS1; assay type: biochemical; details: read-out: Human Calpain 1/NS1 IC50
T1 sequence (P07384 1-714): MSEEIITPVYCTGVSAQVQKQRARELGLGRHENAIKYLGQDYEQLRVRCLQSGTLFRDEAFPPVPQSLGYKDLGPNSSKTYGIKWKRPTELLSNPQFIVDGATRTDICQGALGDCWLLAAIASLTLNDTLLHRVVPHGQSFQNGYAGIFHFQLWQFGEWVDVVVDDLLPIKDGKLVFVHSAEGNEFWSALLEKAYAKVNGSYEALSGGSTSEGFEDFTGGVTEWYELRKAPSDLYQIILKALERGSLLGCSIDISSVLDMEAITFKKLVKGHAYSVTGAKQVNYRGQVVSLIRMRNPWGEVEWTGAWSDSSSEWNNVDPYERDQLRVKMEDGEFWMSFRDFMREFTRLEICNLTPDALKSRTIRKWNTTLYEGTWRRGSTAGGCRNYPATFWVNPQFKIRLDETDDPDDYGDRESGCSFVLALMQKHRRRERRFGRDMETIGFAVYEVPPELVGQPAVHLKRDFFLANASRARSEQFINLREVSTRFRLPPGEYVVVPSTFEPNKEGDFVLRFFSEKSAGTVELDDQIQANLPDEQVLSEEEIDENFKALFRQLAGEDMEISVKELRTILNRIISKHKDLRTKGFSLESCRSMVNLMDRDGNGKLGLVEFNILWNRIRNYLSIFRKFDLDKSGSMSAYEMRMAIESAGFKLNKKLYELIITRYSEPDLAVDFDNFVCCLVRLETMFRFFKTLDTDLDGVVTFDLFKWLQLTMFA
T1 sequence (P04632 1-268 partner): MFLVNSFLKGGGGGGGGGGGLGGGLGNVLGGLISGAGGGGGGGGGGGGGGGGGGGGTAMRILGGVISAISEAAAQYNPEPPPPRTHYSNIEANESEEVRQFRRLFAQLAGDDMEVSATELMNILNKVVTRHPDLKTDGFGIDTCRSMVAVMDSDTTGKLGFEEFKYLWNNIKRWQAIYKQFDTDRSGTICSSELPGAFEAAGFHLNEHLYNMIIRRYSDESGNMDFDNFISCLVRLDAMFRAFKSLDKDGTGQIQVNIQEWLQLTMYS
In short: (§1)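 Continuous FRET read (ex 490/em 520 nm, 10 min) of calpain 1, 2 or 9 cleaving an internally quenched 5-FAM peptide, triggered by substrate with CaCl2 after enzyme–inhibitor incubation at ambient 25 °C, pH 7.5 Tris/NaCl/DTT buffer. IC50 from initial rates (1-5 min) via 4-parameter fit.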

[2] = molecular target: T2, Human Calpain 9/NS1 (Homo sapiens, UniProt O14815); assay: Calpain inhibition continuous fluorescence (FRET) assay, Human Calpain 9/NS1; assay type: biochemical; details: read-out: Human Calpain 9/NS1 IC50
T2 sequence (O14815 1-690): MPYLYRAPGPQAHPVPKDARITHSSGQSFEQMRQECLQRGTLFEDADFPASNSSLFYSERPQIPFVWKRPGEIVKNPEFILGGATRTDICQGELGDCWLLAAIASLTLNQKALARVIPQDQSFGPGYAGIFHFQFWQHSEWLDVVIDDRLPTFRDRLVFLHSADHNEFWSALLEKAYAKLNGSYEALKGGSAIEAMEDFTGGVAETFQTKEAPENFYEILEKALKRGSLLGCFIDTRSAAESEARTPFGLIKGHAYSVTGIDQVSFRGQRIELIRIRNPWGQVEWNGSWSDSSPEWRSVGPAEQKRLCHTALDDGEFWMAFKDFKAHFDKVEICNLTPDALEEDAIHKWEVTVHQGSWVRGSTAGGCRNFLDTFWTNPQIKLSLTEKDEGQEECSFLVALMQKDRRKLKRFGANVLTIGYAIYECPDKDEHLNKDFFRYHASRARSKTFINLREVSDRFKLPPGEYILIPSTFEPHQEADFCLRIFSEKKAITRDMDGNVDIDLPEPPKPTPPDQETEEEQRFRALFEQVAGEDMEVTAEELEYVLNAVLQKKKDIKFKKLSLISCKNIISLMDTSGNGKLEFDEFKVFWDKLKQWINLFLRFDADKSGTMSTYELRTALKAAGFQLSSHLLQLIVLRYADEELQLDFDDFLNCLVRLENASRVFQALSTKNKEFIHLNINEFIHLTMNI
T2 sequence (P04632 1-268 partner): T1 sequence (P04632 1-268 partner)
In short: as §1

[3] = molecular target: T3, Human Calpain 2/NS1 (Homo sapiens, UniProt P17655); assay: Calpain inhibition continuous fluorescence (FRET) assay, Human Calpain 2/NS1; assay type: biochemical; details: read-out: Human Calpain 2/NS1 IC50
T3 sequence (P17655 1-700): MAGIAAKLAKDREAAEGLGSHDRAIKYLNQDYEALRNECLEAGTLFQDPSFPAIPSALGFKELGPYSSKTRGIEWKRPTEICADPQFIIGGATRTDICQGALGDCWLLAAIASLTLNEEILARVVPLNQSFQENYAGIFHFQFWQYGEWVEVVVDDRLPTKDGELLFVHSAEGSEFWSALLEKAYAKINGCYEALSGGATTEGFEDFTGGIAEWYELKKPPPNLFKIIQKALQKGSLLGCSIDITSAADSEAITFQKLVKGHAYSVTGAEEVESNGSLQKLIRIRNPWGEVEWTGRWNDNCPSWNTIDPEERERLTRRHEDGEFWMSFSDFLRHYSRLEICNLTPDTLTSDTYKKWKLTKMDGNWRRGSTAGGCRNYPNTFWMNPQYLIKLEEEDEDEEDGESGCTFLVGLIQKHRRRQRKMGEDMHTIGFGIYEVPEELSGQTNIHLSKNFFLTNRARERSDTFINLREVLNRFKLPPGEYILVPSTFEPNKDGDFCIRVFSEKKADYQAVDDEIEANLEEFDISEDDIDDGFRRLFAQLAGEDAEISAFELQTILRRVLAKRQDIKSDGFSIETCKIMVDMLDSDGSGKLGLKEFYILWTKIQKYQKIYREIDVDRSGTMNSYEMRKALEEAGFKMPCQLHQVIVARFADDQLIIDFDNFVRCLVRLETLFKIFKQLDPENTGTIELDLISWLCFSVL
T3 sequence (P04632 1-268 partner): T1 sequence (P04632 1-268 partner)
In short: as §1

[4] = tested on: Calpain activity in SH-SY5Y cells (SBDP-150); assay: SH-SY5Y Spectrin western blot assay (SBDP-150 breakdown product, A23187-induced); assay type: cell-based; details: Homo sapiens; SH-SY5Y cells, A23187-induced SBDP-150, western blot; read-out: SH-SY5Y Spectrin IC50
[5] = tested on: Calpain activity in SH-SY5Y cells; assay: SH-SY5Y + AMC fluorescence assay (Suc-LLVY-AMC substrate); assay type: cell-based; details: read-out: SH-SY5Y + AMC IC50

| SMILES | IC50 [1] [µM] | IC50 [2] [µM] | IC50 [3] [µM] | IC50 [4] [µM] | IC50 [5] [µM] |
| --- | --- | --- | --- | --- | --- |
| CCCCC(NC(=O)c1nsnc1-c1ccccc1)C(=O)C(N)=O (centres unmarked) [Compound 467, N-(1-amino-1,2-dioxoheptan-3-yl)-4-phenyl-1,2,5-thiadiazole-3-carboxamide] | < 3 | < 3 | < 3 | < 10 | > 25 |
| CC(NC(=O)c1nsnc1-c1ccccc1)C(=O)C(N)=O (centres unmarked) [Compound 468, N-(4-amino-3,4-dioxobutan-2-yl)-4-phenyl-1,2,5-thiadiazole-3-carboxamide] | < 3 | < 3 | < 3 | < 10 | > 25 |
| CCn1cc(C(=O)NC(Cc2ccccc2)C(=O)C(N)=O)c(-c2ccccc2F)n1 (centres unmarked) [Compound 469, N-(4-amino-3,4-dioxo-1-phenylbutan-2-yl)-1-ethyl-3-(2-fluorophenyl)-1H-pyrazole-4-carboxamide] | < 3 | < 3 | < 3 | 10 to 25 | < 10 |
| CCn1cc(C(=O)NC(Cc2ccccc2)C(=O)C(N)=O)c(-c2ccc(F)cc2)n1 (centres unmarked) [Compound 471, N-(4-amino-3,4-dioxo-1-phenylbutan-2-yl)-1-ethyl-3-(4-fluorophenyl)-1H-pyrazole-4-carboxamide] | < 3 | < 3 | < 3 | 10 to 25 | 10 to 25 |
| CC(C)n1cc(C(=O)NC(Cc2ccccc2)C(=O)C(N)=O)c(-c2ccccc2F)n1 (centres unmarked) [Compound 472, N-(4-amino-3,4-dioxo-1-phenylbutan-2-yl)-3-(2-fluorophenyl)-1-isopropyl-1H-pyrazole-4-carboxamide] | < 3 | < 3 | < 3 | 10 to 25 | < 10 |
| CC(C)n1cc(C(=O)NC(Cc2ccccc2)C(=O)C(N)=O)c(-c2cccc(F)c2)n1 (centres unmarked) [Compound 473, N-(4-amino-3,4-dioxo-1-phenylbutan-2-yl)-3-(3-fluorophenyl)-1-isopropyl-1H-pyrazole-4-carboxamide] | < 3 | < 3 | < 3 | 10 to 25 | 10 to 25 |
| CC(C)n1cc(C(=O)NC(Cc2ccccc2)C(=O)C(N)=O)c(-c2ccc(F)cc2)n1 (centres unmarked) [Compound 474, N-(4-amino-3,4-dioxo-1-phenylbutan-2-yl)-3-(4-fluorophenyl)-1-isopropyl-1H-pyrazole-4-carboxamide] | < 3 | < 3 | < 3 | 10 to 25 | 10 to 25 |

Next, values leading:

| IC50 [1] [µM] | IC50 [2] [µM] | IC50 [3] [µM] | IC50 [4] [µM] | IC50 [5] [µM] | SMILES |
| --- | --- | --- | --- | --- | --- |
| 3 to 10 | 3 to 10 | < 3 | < 10 | > 25 | Cc1nc(-c2ccccc2)c(C(=O)N[C@@H](Cc2ccccc2)C(=O)CF)o1 [Compound 475, (S)—N-(4-fluoro-3-oxo-1-phenylbutan-2-yl)-2-methyl-4-phenyloxazole-5-carboxamide] |
| < 3 | < 3 | < 3 | 10 to 25 | > 25 | Cn1cc(C(=O)N[C@@H](Cc2ccccc2)C(=O)CF)c(-c2ccccc2)n1 [Compound 476, (S)—N-(4-fluoro-3-oxo-1-phenylbutan-2-yl)-1-methyl-3-phenyl-1H-pyrazole-4-carboxamide] |
| 3 to 10 | 3 to 10 | < 3 | 10 to 25 | > 25 | Cc1cc(C(=O)N[C@@H](Cc2ccccc2)C(=O)CF)n(-c2cnccn2)n1 [Compound 477, (S)—N-(4-fluoro-3-oxo-1-phenylbutan-2-yl)-3-methyl-1-(pyrazin-2-yl)-1H-pyrazole-5-carboxamide] |
| < 3 | 3 to 10 | < 3 | > 25 | > 25 | Cc1cc(C(=O)N[C@@H](Cc2ccccc2)C(=O)CF)n(-c2ccccn2)n1 [Compound 478, (S)—N-(4-fluoro-3-oxo-1-phenylbutan-2-yl)-3-methyl-1-(pyridin-2-yl)-1H-pyrazole-5-carboxamide] |
| < 3 | < 3 | < 3 | 10 to 25 | > 25 | Cc1cc(C(=O)N[C@@H](Cc2ccccc2)C(=O)CF)n(-c2ccccc2)n1 [Compound 479, (S)—N-(4-fluoro-3-oxo-1-phenylbutan-2-yl)-3-methyl-1-phenyl-1H-pyrazole-5-carboxamide] |
| < 3 | < 3 | < 3 | 10 to 25 | 10 to 25 | Cn1cc(C(=O)NC(Cc2ccccc2)C(=O)C(N)=O)c(-c2cccc(F)c2F)n1 (centres unmarked) [Compound 480, N-(4-amino-3,4-dioxo-1-phenylbutan-2-yl)-3-(2,3-difluorophenyl)-1-methyl-1H-pyrazole-4-carboxamide] |
| < 3 | < 3 | < 3 | 10 to 25 | < 10 | Cn1cc(C(=O)NC(Cc2ccccc2)C(=O)C(N)=O)c(-c2c(F)cccc2F)n1 (centres unmarked) [Compound 486, N-(4-amino-3,4-dioxo-1-phenylbutan-2-yl)-3-(2,6-difluorophenyl)-1-methyl-1H-pyrazole-4-carboxamide] |
| < 3 | < 3 | < 3 | 10 to 25 | 10 to 25 | NC(=O)C(=O)C(Cc1ccccc1)NC(=O)c1cn(C(F)(F)F)nc1-c1ccccc1 (centres unmarked) [Compound 489, N-(4-amino-3,4-dioxo-1-phenylbutan-2-yl)-3-phenyl-1-(trifluoromethyl)-1H-pyrazole-4-carboxamide] |
| < 3 | < 3 | < 3 | 10 to 25 | > 25 | Cc1noc(-c2ccccc2)c1C(=O)N[C@@H](Cc1ccc(O)cc1)C(=O)C(N)=O [Compound 492, (S)—N-(4-amino-1-(4-hydroxyphenyl)-3,4-dioxobutan-2-yl)-3-methyl-5-phenylisoxazole-4-carboxamide] |
